Results taken from patent US4036979A, “Compositions containing 4,5,6,7-tetrahydrobenz[b]thien-4-yl-ureas or derivatives and methods of enhancing growth rate” (American Cyanamid Company, priority 1976, dated 1977).
Where “and” joins values, the source holds several entries; their conditions need not be identical. Equal values may be shown once.

How the values were obtained:
[1] = Growth enhancement and feed efficiency improvement in sheep fed levels of test compounds (six weeks); assay type: in vivo, sheep (Wether lambs); conditions: for Average Daily Gain (kg)/Lamb, av. / Six-Week Feed/Gain, av.: average of 5 replications; for Average Daily Gain (kg)/Lamb / Six-Week Feed/Gain: replications 1 to 5
From the text: To determine the effect of feeding experimental compounds on sheep performance, Wether lambs are randomly allotted to pens in groups of six. The sheep are weighed and permitted feed and water ad libitum. The feed is weighed daily, and uneaten feed from the previous day is collected and weighed. Test lambs receive the same diet as control animals but with the addition of experimental compound at a concentration of either 15 or 60 ppm. At the end of the six-week treatment period, the lambs are again weighed, and total feed is calculated.
In these tests, five replicates of six lambs each per treatment are used.

[2] = Mouse Growth Regulant Tests (12-day weight gain over controls, compound in diet); assay type: in vivo, CFI female mice; conditions: Mus musculus, feed or water, 288 h; for change in vivo at 50 ppm: 50 ppm in diet; for change in vivo at 400 ppm: 400 ppm in diet
[3] = Growth enhancement and feed efficiency in sheep given an implant containing test compound (six weeks); assay type: in vivo, sheep (Wether lambs); conditions: for Average 6-Week Feed/Gain per Pen, AV. / Average 6-Week Weight Gain (kg.)/Lamb, AV.: average of 6 replications; for Average 6-Week Feed/Gain per Pen / Average 6-Week Weight Gain (kg.)/Lamb: replications 1 to 6
From the text: To determine the effect of a 4,5,6,7-tetrahydrobenzo[b]thien-4-ylurea compound on sheep, Wether lambs are randomly allotted to pens in groups of six. The sheep are weighed and permitted food and water ad libitum. The feed is weighed daily, and uneaten feed from the previous day is collected and weighed. Test lambs receive the same unmedicated diet as control animals, but test animals receive one or more subcutaneous implants containing test compound at the base of the ear. The formulation of the implant used is given below. At the end of the six-week treatment period, the lambs are again weighed, and total feed consumed is calculated.
In these tests, six replicates of six lambs each per treatment are used and each animal receives from about 11 mg. to 105 mg. of test compound.

[4] = Chick tests: growth promotion and feed/gain, 13 days, compound in basal diet; assay type: in vivo, chicks; conditions: for Average 13-day Chick/Gain (g), AV. / Average 13-day Feed/Gain, AV.: average of 4 experiments; for Average 13-day Chick/Gain / Average 13-day Feed/Gain: experiments 1928, 1929, 1930, 1931; for Percent Improvement (13-day chick gain) / Percent Improvement (13-day feed/gain): vs control
Protocol: The following tests were conducted to evaluate the ability of 4,5,6,7-tetrahydrobenzo[b]thien-4-ylurea to promote growth in chicks.
In these tests day-old chicks are placed in heated cages and given feed and water ad libitum. In each test there are 5 male and 5 female chicks per cage and three cages per treatment are used. Treatments consist of a basal diet plus 1,3 or 9 ppm. of test compound. The chicks are weighed at the beginning and end of the experiment. Feed consumption is determined for the experimental period which is 13 days beginning when the chicks are one day old.

## NC(=O)NC1CCC(=O)c2sccc21 (stereo not drawn) [Compound B, 4,5,6,7-tetrahydro-7-oxobenzo[b]thien-4-ylurea]
[1]; 15 ppm in feed
  Average Daily Gain (kg)/Lamb, av.: 0.202 kg
  Six-Week Feed/Gain, av.: 6.216
  Average Daily Gain (kg)/Lamb: 0.187 kg and 0.208 kg and 0.218 kg and 0.186 kg and 0.210 kg
  Six-Week Feed/Gain: 6.785 and 6.067 and 5.344 and 6.795 and 6.089
[1]; 60 ppm in feed
  Average Daily Gain (kg)/Lamb, av.: 0.208 kg
  Six-Week Feed/Gain, av.: 5.151
  Average Daily Gain (kg)/Lamb: 0.216 kg and 0.207 kg and 0.237 kg and 0.189 kg and 0.190 kg
  Six-Week Feed/Gain: 6.116 and 6.263 and 5.144 and 6.723 and 6.506

## NC(=O)NC1CCCc2sccc21 (stereo not drawn) [4,5,6,7-tetrahydrobenzo[b]thien-4-ylurea]
[2]; Table VI
  change in vivo at 50 ppm: 50.1%
  change in vivo at 400 ppm: 120%
[2]; Table VI, 200 ppm in diet
  change in vivo at 200 ppm: 134%
[3]; 11 mg. or 99 mg. implanted, six weeks
  improvement of feed utilization over untreated controls: about 5%
[3]; 11 mg. or 99 mg. implanted, six weeks after implantation
  increase in weight gain over untreated controls: ~10%
[3]; 1 drug implant
  Average 6-Week Feed/Gain per Pen, AV.: 7.57
  Average 6-Week Weight Gain (kg.)/Lamb, AV.: 8.86 kg
  Average 6-Week Feed/Gain per Pen: 6.63 and 6.58 and 7.41 and 8.21 and 8.05 and 8.49
  Average 6-Week Weight Gain (kg.)/Lamb: 11.25 kg and 9.32 kg and 9.20 kg and 8.63 kg and 8.05 kg and 6.68 kg
[3]; 9 drug implants
  Average 6-Week Feed/Gain per Pen, AV.: 7.49
  Average 6-Week Weight Gain (kg.)/Lamb, AV.: 8.69 kg
  Average 6-Week Feed/Gain per Pen: 6.51 and 6.75 and 7.80 and 8.38 and 7.56 and 7.97
  Average 6-Week Weight Gain (kg.)/Lamb: 10.83 kg and 9.60 kg and 8.75 kg and 7.20 kg and 8.53 kg
[4]; 1 ppm
  Average 13-day Chick/Gain (g), AV.: 189 g
  Average 13-day Feed/Gain, AV.: 1.46
  Average 13-day Chick/Gain: 181 g and 193 g and 182 g and 200 g
  Average 13-day Feed/Gain: 1.48 and 1.45 and 1.49 and 1.44
  Percent Improvement (13-day chick gain): 3.3%
  Percent Improvement (13-day feed/gain): 2.7%
[4]; 3 ppm
  Average 13-day Chick/Gain (g), AV.: 195 g
  Average 13-day Feed/Gain, AV.: 1.43
  Average 13-day Chick/Gain: 199 g and 186 g and 197 g and 198 g
  Average 13-day Feed/Gain: 1.47 and 1.40 and 1.44
  Percent Improvement (13-day chick gain): 6.6%
  Percent Improvement (13-day feed/gain): 4.7%
[4]; 9 ppm
  Average 13-day Chick/Gain (g), AV.: 193 g
  Average 13-day Feed/Gain, AV.: 1.44
  Average 13-day Chick/Gain: 190 g and 198 g and 191 g
  Average 13-day Feed/Gain: 1.45 and 1.46 and 1.40
  Percent Improvement (13-day chick gain): 5.5%
  Percent Improvement (13-day feed/gain): 4.0%
[1]; 15 ppm in feed
  Average Daily Gain (kg)/Lamb, av.: 0.186 kg
  Six-Week Feed/Gain, av.: 6.611
  Average Daily Gain (kg)/Lamb: 0.190 kg and 0.187 kg and 0.186 kg and 0.174 kg and 0.195 kg
  Six-Week Feed/Gain: 6.777 and 6.174 and 6.158 and 7.626 and 6.319
[1]; 60 ppm in feed
  Average Daily Gain (kg)/Lamb, av.: 0.208 kg
  Six-Week Feed/Gain, av.: 6.148
  Average Daily Gain (kg)/Lamb: 0.211 kg and 0.250 kg and 0.200 kg and 0.193 kg and 0.189 kg
  Six-Week Feed/Gain: 6.250 and 5.539 and 6.040 and 6.507 and 6.403

## COCNC(=O)NC1CCCc2sccc21 (stereo not drawn) [Table VI: O,H,H,H,H,CH2OCH3, 1-(methoxymethyl)-3-(4,5,6,7-tetrahydrobenzo[b]thien-4-yl)urea]
[2]; Table VI
  change in vivo at 400 ppm: 102%

## CN(Cc1ccccc1)C(=O)NC1CCCc2sccc21 (stereo not drawn) [Table VI: O,H,H,H,CH3,CH2C6H5]
[2]; Table VI
  change in vivo at 400 ppm: 14%

## CC(C)NC(=O)NC1CCCc2sccc21 (stereo not drawn) [Table VI: O,H,H,H,H,CH(CH3)2, 1-isopropyl-3-(4,5,6,7-tetrahydrobenzo[b]thien-4-yl)urea]
[2]; Table VI
  change in vivo at 400 ppm: 88%

## S=C(NCCc1ccccn1)NC1CCCc2sccc21 (stereo not drawn)
[2]; Table VI
  change in vivo at 400 ppm: 15%

## O=C(NC1CCCc2sccc21)N1CCC2(CC1)C(=O)NCN2c1ccccc1 (stereo not drawn)
[2]; Table VI
  change in vivo at 400 ppm: 14%

## O=C(NCC(F)(F)F)NC1CCCc2sccc21 (stereo not drawn) [Table VI: O,H,H,H,H,CH2CF3]
[2]; Table VI
  change in vivo at 400 ppm: 19%

## O=C(NOCc1ccccc1)NC1CCCc2sccc21 (stereo not drawn) [Table VI: O,H,H,H,H,OCH2C6H5, 1-benzyloxy-3-(4,5,6,7-tetrahydrobenzo[b]thien-4-yl)urea]
[2]; Table VI
  change in vivo at 400 ppm: 7.8%

## C#CCNC(=O)NC1CCC(O)c2sccc21 (stereo not drawn) [Table VIII: O,H,CH2CCH, 1-(2-propynyl)-3-(7-hydroxy-4,5,6,7-tetrahydrobenzo[b]thien-4-yl)urea]
[2]; Table VIII
  change in vivo at 50 ppm: 49.2%

## CCCCCCCCCCNC(=O)NC1CCC(=O)c2sccc21 (stereo not drawn) [Table VII: O,H,n-C10H21]
[2]; Table VII
  change in vivo at 400 ppm: 15.4%

## CCNC(=S)NC1CCCCc2sccc21 (stereo not drawn) [Table IX: S,H,H,C2H5, 1-ethyl-3-(5,6,7,8-tetrahydro-4H-cyclohepta[b]thien-4-yl)-2-thiourea]
[2]; Table IX
  change in vivo at 400 ppm: 40%
